Measurements from ChEMBL document CHEMBL3868640, “1,2,4-Triazolidine-3-thiones as Narrow Spectrum Antibiotics against Multidrug-Resistant Acinetobacter baumannii” (ACS Med Chem Lett, 2017).
Values after ≈ are worked out from the molar mass of the structure shown.

Experiments:
Acinetobacter baumannii [1] = assay: Antimicrobial activity against extensively drug-resistant Acinetobacter baumannii AB5075 after 16 hrs by microbroth dilution method; assay type: functional; details: AB5075, 16 h
Acinetobacter baumannii [2] = assay: Antimicrobial activity against multi drug-resistant Acinetobacter baumannii AB4878 after 16 hrs by microbroth dilution method; assay type: functional; details: AB4878, 16 h
Acinetobacter baumannii [3] = assay: Antimicrobial activity against multi drug-resistant Acinetobacter baumannii AB3785 after 16 hrs by microbroth dilution method; assay type: functional; details: AB3785, 16 h
Acinetobacter baumannii [4] = assay: Antimicrobial activity against multi drug-resistant Acinetobacter baumannii AB3806 after 16 hrs by microbroth dilution method; assay type: functional; details: AB3806, 16 h
Acinetobacter baumannii [5] = assay: Antimicrobial activity against multi drug-resistant Acinetobacter baumannii AB4957 after 16 hrs by microbroth dilution method; assay type: functional; details: AB4957, 16 h
Acinetobacter baumannii [6] = assay: Antimicrobial activity against multi drug-resistant Acinetobacter baumannii BAA1605 after 16 hrs by microbroth dilution method; assay type: functional; details: BAA1605, 16 h
Acinetobacter baumannii [7] = assay: Antimicrobial activity against multi drug-resistant Acinetobacter baumannii AB3638 after 16 hrs by microbroth dilution method; assay type: functional; details: AB3638, 16 h
Acinetobacter baumannii [8] = assay: Bactericidal activity against extensively drug-resistant Acinetobacter baumannii AB5075 assessed as log reduction in bacterial count at 4 to 16 ug/ml measured up to 24 hrs by time kill assay; assay type: functional
Acinetobacter baumannii [9] = assay: Antimicrobial activity against extensively drug-resistant Acinetobacter baumannii AB5075 in 0.02% linoleic acid supplemented media after 16 hrs by microbroth dilution method; assay type: functional; details: AB5075, 16 h
Klebsiella pneumoniae = assay: Antimicrobial activity against Klebsiella pneumoniae after 16 hrs by microbroth dilution method; assay type: functional
Escherichia coli = assay: Antimicrobial activity against Escherichia coli after 16 hrs by microbroth dilution method; assay type: functional
Pseudomonas aeruginosa = assay: Antimicrobial activity against Pseudomonas aeruginosa after 16 hrs by microbroth dilution method; assay type: functional
Staphylococcus aureus = assay: Antimicrobial activity against methicillin-resistant Staphylococcus aureus after 16 hrs by microbroth dilution method; assay type: functional
[10] = Drug degradation in cation adjusted Mueller-Hinton broth after 16 hrs by liquid chromatography; assay type: physicochemical
[11] = Half life in cation adjusted Mueller-Hinton broth by liquid chromatography; assay type: physicochemical
[12] = Hemolytic activity against sheep RBC up to 512 ug/ml after 1 hr by UV spectrometric analysis; assay type: ADME, cell-based, Ovis aries; details: erythrocyte
Acinetobacter baumannii [13] = assay: Antibacterial activity against Acinetobacter baumannii AB5075 infected in Galleria mellonella assessed as protection against bacterial infection by measuring survival of host at 50 mg/kg after 6 days relative to control; assay type: functional; details: AB5075, 144 h
Acinetobacter baumannii [14] = assay: Antibacterial activity against Acinetobacter baumannii AB5075 infected in Galleria mellonella assessed as protection against bacterial infection by measuring survival of host at 100 mg/kg after 6 days relative to control; assay type: functional; details: AB5075, 144 h
Acinetobacter baumannii [15] = assay: Antibacterial activity against Acinetobacter baumannii AB5075 infected in Galleria mellonella assessed as worm survival at 50 mg/kg after 3 days relative to control; assay type: functional; details: AB5075, 72 h
Acinetobacter baumannii [16] = assay: Antibacterial activity against Acinetobacter baumannii AB5075 infected in Galleria mellonella assessed as worm survival at 100 mg/kg after 3 days relative to control; assay type: functional; details: AB5075, 72 h

| Compound | MIC (Acinetobacter baumannii [1]) [µg/mL] | also measured |
| --- | --- | --- |
| SC1=NC2(CCCCC2)NN1c1ccccc1 | 8 (≈ 32.3 µM) |  |
| CCC1(CC)NC(=S)N(c2ccccc2)N1 | 8 (≈ 34 µM) |  |
| CC1(C)NC(=S)N(c2ccccc2)N1 | 8 (≈ 38.6 µM) |  |
| CC(C)C1(C)NC(=S)N(c2ccccc2)N1 (stereo unspecified) | 8 (≈ 34 µM) |  |
| CCCCN1N(c2ccc(Cl)cc2)C(=S)NC1(C)C | > 128 |  |
| CCC1NC(=S)N(c2ccccc2)N1 (stereo unspecified) | > 128 |  |
| CCCC1(CC)NC(=S)N(c2ccccc2)N1 (stereo unspecified) | 32 (≈ 128 µM) |  |
| CCC1(CC)NC(=S)N(c2ccccc2F)N1 | 32 (≈ 126 µM) |  |
| CCC1(CC)NC(=S)N(c2cccc(Cl)c2)N1 | 8 (≈ 29.7 µM) |  |
| CCC1(CC)NC(=S)N(c2ccc(F)cc2)N1 | 4 (≈ 15.8 µM) |  |
| CCCC1NC(=S)N(c2ccccc2)N1 (stereo unspecified) | 64 (≈ 289 µM) |  |
| CC1(C)NNC(=S)N1c1ccc(Cl)cc1 | > 128 |  |
| CC1NC(=S)N(c2ccccc2)N1 (stereo unspecified) | > 128 |  |
| CC1(c2ccccc2)NC(=S)N(c2ccccc2)N1 (stereo unspecified) | > 128 |  |
| CC1(C)NC(=S)N(c2ccc(Cl)cc2)N1 |  | MIC (Acinetobacter baumannii [2]): 2 µg/mL (≈ 8.27 µM); MIC (Acinetobacter baumannii [3]): 1 µg/mL (≈ 4.14 µM); MIC (Acinetobacter baumannii [4]): 1 µg/mL (≈ 4.14 µM); MIC (Acinetobacter baumannii [5]): 2 µg/mL (≈ 8.27 µM); MIC (Acinetobacter baumannii [6]): 2 µg/mL (≈ 8.27 µM); MIC (Acinetobacter baumannii [7]): 1 µg/mL (≈ 4.14 µM); log reduction (Acinetobacter baumannii [8]): > 6 log10 CFU/mL; MIC (Acinetobacter baumannii [9]): > 128 µg/mL; MIC (Klebsiella pneumoniae): ≥ 128 µg/mL; MIC (Escherichia coli): ≥ 128 µg/mL; MIC (Pseudomonas aeruginosa): ≥ 128 µg/mL; MIC (Staphylococcus aureus): ≥ 128 µg/mL; Stability [10]: Unstable; half-life [11]: 150 min; Activity [12]: Non-Toxic; survival at 50 mg/kg (Acinetobacter baumannii [13]): 22%; survival at 100 mg/kg (Acinetobacter baumannii [14]): 32%; survival at 50 mg/kg (Acinetobacter baumannii [15]): 42.5%; survival at 100 mg/kg (Acinetobacter baumannii [16]): 45% |
| S=C1NC2(CCCC2)NN1c1ccccc1 | 8 (≈ 34.3 µM) |  |
| CCC1(C(C)C)NC(=S)N(c2ccccc2)N1 (stereo unspecified) | 32 (≈ 128 µM) |  |
| CCC1(CC)NC(=S)N(c2ccc(C#N)cc2)N1 | > 128 |  |

| Compound | MIC (Acinetobacter baumannii [1]) [µg/mL] | also measured |
| --- | --- | --- |
| CCC1(CC)NC(=S)N(c2ccccc2Cl)N1 | 128 (≈ 474 µM) |  |
| CCC1(CC)NC(=S)N(c2ccc(C(C)C)cc2)N1 | > 128 |  |
| CCCC1(CCC)NC(=S)N(c2ccccc2)N1 | 32 (≈ 121 µM) |  |
| CCC1(CC)NC(=S)N(c2ccc(Cl)cc2)N1 | 2 (≈ 7.41 µM) | MIC (Acinetobacter baumannii [2]): 4 µg/mL (≈ 14.8 µM); MIC (Acinetobacter baumannii [3]): 4 µg/mL (≈ 14.8 µM); MIC (Acinetobacter baumannii [4]): 4 µg/mL (≈ 14.8 µM); MIC (Acinetobacter baumannii [5]): 4 µg/mL (≈ 14.8 µM); MIC (Acinetobacter baumannii [6]): 4 µg/mL (≈ 14.8 µM); MIC (Acinetobacter baumannii [7]): 4 µg/mL (≈ 14.8 µM) |
| CCC1(CC)NC(=S)N(c2cc(F)cc(F)c2)N1 | > 128 |  |
| CCC1(CC)NC(=S)N(c2cccc(F)c2)N1 | 8 (≈ 31.6 µM) |  |
| CSC1=NC(C)(C)NN1c1ccc(Cl)cc1 | > 128 |  |
| S=C1NC(c2ccccc2)NN1c1ccccc1 (stereo unspecified) | 64 (≈ 251 µM) |  |
| CCC1(CC)NC(=S)N(c2ccc(I)cc2)N1 | 8 (≈ 22.1 µM) |  |
| CCC1(CC)NC(=S)N(c2ccc(C(F)(F)F)cc2)N1 | > 128 |  |
| CCC1(C)NC(=S)N(c2ccccc2)N1 (stereo unspecified) | 8 (≈ 36.1 µM) | MIC (Acinetobacter baumannii [2]): 8 µg/mL (≈ 36.1 µM); MIC (Acinetobacter baumannii [3]): 4 µg/mL (≈ 18.1 µM); MIC (Acinetobacter baumannii [4]): 4 µg/mL (≈ 18.1 µM); MIC (Acinetobacter baumannii [5]): 8 µg/mL (≈ 36.1 µM); MIC (Acinetobacter baumannii [6]): 8 µg/mL (≈ 36.1 µM); MIC (Acinetobacter baumannii [7]): 4 µg/mL (≈ 18.1 µM) |
| CCC1(CC)NC(=S)N(c2ccc([N+](=O)[O-])cc2)N1 | > 128 |  |
| CN1N(c2ccc(Cl)cc2)C(=S)NC1(C)C | > 128 |  |
| CCC1(CC)NC(=S)N(c2ccc(Cl)c(Cl)c2)N1 | > 128 |  |
| CCCC1(C)NC(=S)N(c2ccccc2)N1 (stereo unspecified) | 16 (≈ 68 µM) |  |
| CCC1(CC)NC(=S)N(c2ccc(F)c(Cl)c2)N1 | 32 (≈ 111 µM) |  |
| CCC1(CC)NC(=S)N(c2ccc(Br)cc2)N1 | 4 (≈ 12.7 µM) |  |
| CC1(C)N=C(SCc2ccccc2)N(c2ccc(Cl)cc2)N1 | > 128 |  |
